From patent US20210038607A1, “OXADIAZOLYLTHIOPHENE DERIVATIVES USEFUL AS HISTONE DEACETYLASE INHIBITORS” (Karus Therapeutics Limited, priority 2018, published 2021) come the findings set out here.

Experiment [1] relates to acetylated α-tubulin in A549 lung adenocarcinoma cells. In words: Acetylated α-tubulin in-cell western (ICW) assay. In kind it is cell-based. To be noted: Homo sapiens, 16 h exposure, relative to 40 μM scriptaid positive control, read-out: EC50 Ac-α-tubulin, A549 cells. As for the experimental part:
(§1) Acetylated α-Tubulin and Histone H3 in-Cell Western (ICW) Assays
(§2) A549 cells were maintained in DMEM (Life Technologies)+10% FBS+2 mM glutamine & penicillin (10 μg/mL) and streptomycin ([…]. 10,000 A549 cells per well were plated into 96 well tissue culture plates (Corning) and incubated at 37° C. overnight in a humidified atmosphere containing 5% CO2 prior to addition of compounds. Compounds (dissolved in 100% DMSO) were diluted into cell culture media at 2× final assay concentration. 2× compound or DMSO (negative control) were added to cells (final DMSO concentration 0.4%). Untreated control wells received media. For acetylated α-tubulin assays, 40 μM scriptaid was used as a positive control. For acetylated histone H3 assays, 40 μM Trichostatin A (TSA) was used as a positive control. Cells were exposed to compound at 37° C. in a humidified atmosphere containing 5% CO2 for 16 h.
(§3) Measurement of the impact of compounds on levels of acetylated α-tubulin and histone H3 was performed using specific antibodies and near-infrared immunofluorescent dyes. Briefly, media was removed from wells of assay plates. Cells were washed once with PBS and fixed in 3.7% formaldehyde PBS solution at room temperature for 20 min. Cells were then permeabilised by washing 5 times in 0.1% triton-X-100 PBS at room temperature with gentle agitation for 5 min per wash. Non-specific antibody staining was blocked by the addition of Odyssey blocking buffer (Li-Cor) for 1.5 h at room temperature with gentle agitation. Cells were then incubated with primary antibody (mouse monoclonal anti-acetylated α-tubulin (clone 6-11B-1), Sigma or rabbit polyclonal anti-acetylated histone H3, Millipore) diluted in Odyssey blocking buffer at 4° C. with gentle shaking overnight (no antibody control and secondary antibody only wells were incubated with Odyssey blocking buffer only). Cells were washed five times with 0.1% tween PBS and labelled with secondary antibody (IR dye 800CW-conjugated goat anti mouse IgG or -goat anti rabbit IgG, Li-Cor) and cell stains Sapphire700 (Li-Cor) and Draq5 (Biostatus) diluted in Odyssey blocking buffer at room temperature in the dark with gentle shaking for 1 h (no antibody control wells were incubated with Odyssey blocking buffer only and secondary antibody only with diluted secondary antibody but no cell stains). Cells were washed with 0.1% Tween PBS five times and scanned using a Li-Cor Odyssey SA plate reader in 700 and 800 nm channels. Acetylated α-tubulin or histone H3 signal was normalised to cell number using the cell stain signal. Percentage increase in acetylated α-tubulin or histone H3 after compound treatment over the mean of DMSO treated controls, relative to scriptaid and TSA positive controls, respectively was calculated. EC50 values were calculated using GraphPad Prism software and nonlinear regression with 0% bottom and 100% top constraints.

In experiment [2] the test system is acetylated histone H3 in A549 lung adenocarcinoma cells. As to the kind of experiment: Acetylated histone H3 in-cell western (ICW) assay. In kind it is cell-based. Conditions: Homo sapiens, 16 h exposure, relative to 40 μM Trichostatin A positive control, read-out: EC50 Ac-histone H3, A549 cells. The procedure:
as §1, §2, §3

For experiment [3], the target named is T1, Human HDAC10 (Homo sapiens, UniProt Q969S8).
T1 construct: Human HDAC10 (a.a. 1-481); GST (N); His (C); host or cells: baculovirus expression system
T1 sequence (Q969S8 1-481): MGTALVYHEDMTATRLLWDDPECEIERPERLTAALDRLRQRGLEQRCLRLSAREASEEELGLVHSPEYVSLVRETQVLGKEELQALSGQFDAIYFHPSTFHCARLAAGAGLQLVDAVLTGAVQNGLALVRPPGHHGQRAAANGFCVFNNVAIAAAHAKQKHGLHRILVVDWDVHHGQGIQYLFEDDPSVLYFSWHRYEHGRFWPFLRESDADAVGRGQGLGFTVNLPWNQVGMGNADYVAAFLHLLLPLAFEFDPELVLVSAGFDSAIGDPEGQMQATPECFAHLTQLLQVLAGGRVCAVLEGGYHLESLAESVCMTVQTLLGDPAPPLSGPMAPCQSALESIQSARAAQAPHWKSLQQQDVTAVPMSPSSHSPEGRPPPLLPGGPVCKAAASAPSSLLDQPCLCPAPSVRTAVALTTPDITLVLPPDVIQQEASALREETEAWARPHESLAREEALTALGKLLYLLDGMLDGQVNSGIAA
As to the kind of experiment: HDAC10 biochemical assay, AMC-labeled peptide substrate. Conditions: read-out: HDAC Isoform IC50 (nM) 10. Put shortly: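 Two-step fluorogenic read-out (Ex/Em 360/460) after developer digestion of deacetylated RHKK(Ac)AMC (50 μM). Deacetylation ran 2 h at 30 °C with 12 ng/ul HDAC10 (aa 1-481, GST/His tags, baculovirus) in Tris-HCl pH 8.0, BSA, 1% DMSO.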

The target of experiment [4] is T2, Human HDAC2 (Homo sapiens, UniProt Q92769).
T2 construct: full length with C-terminal GST-tag; GST (C); host or cells: baculovirus expression system
In words: HDAC2 biochemical assay, AMC-labeled peptide substrate. To be noted: read-out: HDAC Isoform IC50 (nM) 2. The procedure, abridged: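 Full-length human HDAC2 with C-terminal GST tag, baculovirus-expressed, at 0.07 ng/ul with 50 μM RHKK(Ac)AMC substrate in Tris-HCl pH8.0 buffer with BSA, 1% DMSO final. Incubated 1 hour at 30° C with compounds, then developer added; fluorescence read at 360/460 Ex/Em.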

Bounds are passed on as bounds.

T2 sequence (Q92769 whole entry): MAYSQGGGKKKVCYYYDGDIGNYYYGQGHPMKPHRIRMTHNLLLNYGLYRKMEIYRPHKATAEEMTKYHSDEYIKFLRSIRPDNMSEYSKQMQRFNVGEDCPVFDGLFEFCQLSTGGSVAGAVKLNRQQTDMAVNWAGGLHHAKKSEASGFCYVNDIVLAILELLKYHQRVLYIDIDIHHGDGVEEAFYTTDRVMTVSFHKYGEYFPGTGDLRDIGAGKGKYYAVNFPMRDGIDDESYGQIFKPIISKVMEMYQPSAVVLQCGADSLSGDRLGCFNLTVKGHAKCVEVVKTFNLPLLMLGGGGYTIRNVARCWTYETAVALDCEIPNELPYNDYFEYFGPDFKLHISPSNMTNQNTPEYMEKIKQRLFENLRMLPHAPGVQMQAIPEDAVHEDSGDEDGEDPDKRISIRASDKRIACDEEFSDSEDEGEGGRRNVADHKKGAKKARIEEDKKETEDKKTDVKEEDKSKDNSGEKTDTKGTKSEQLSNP

In the case of `O=C(c1ccc(N(Cc2ccc(-c3noc(C(F)(F)F)n3)s2)c2cnccn2)nn1)N1CCOCC1` [Example DS, 6-(Morpholine-4-carbonyl)-N-(pyrazin-2-yl)-N-({5-[5-(trifluoromethyl)-1,2,4-oxadiazol-3-yl]thiophen-2-yl}methyl)pyridazin-3-amine], the EC50 is no more than 1000 nM in experiment [1] and no less than 10 µM in experiment [2]. For the same compound, the IC50 in experiment [3] and in experiment [4] was greater than 10000 nM in each case.
Take `O=C(O)c1cnnc(N(Cc2ccc(-c3noc(C(F)(F)F)n3)s2)c2cnccn2)c1` [Example DW, 6-[(Pyrazin-2-yl)({5-[5-(trifluoromethyl)-1,2,4-oxadiazol-3-yl]thiophen-2-yl}methyl)amino]pyridazine-4-carboxylic acid]: the results for the EC50 in experiment [1] and in experiment [2] were no less than 10000 nM and no less than 10 µM, respectively. Also, the IC50 in experiment [3] and in experiment [4] was greater than 10000 nM throughout.
With `NC(=O)c1cnnc(N(Cc2ccc(-c3noc(C(F)(F)F)n3)s2)c2cnccn2)c1` [Example DX, 6-[(Pyrazin-2-yl)({5-[5-(trifluoromethyl)-1,2,4-oxadiazol-3-yl]thiophen-2-yl}methyl)amino]pyridazine-4-carboxamide], the EC50 in experiment [1] was no more than 1000 nM; in experiment [2] it was no less than 10 µM. The IC50 in experiment [3] and in experiment [4] was greater than 10000 nM each time.
For `CNC(=O)c1cnnc(N(Cc2ccc(-c3noc(C(F)(F)F)n3)s2)c2cnccn2)c1` [Example DY, N-Methyl-6-[(pyrazin-2-yl)({5-[5-(trifluoromethyl)-1,2,4-oxadiazol-3-yl]thiophen-2-yl}methyl)amino]pyridazine-4-carboxamide], the results for the EC50 in experiment [1] and in experiment [2] were no more than 1000 nM and no less than 10 µM, respectively. The IC50 in experiment [3] and in experiment [4] was greater than 10000 nM in each case.
Regarding `COC1CN(C(=O)c2cnnc(N(Cc3ccc(-c4noc(C(F)(F)F)n4)s3)c3cnccn3)c2)C1` [Example DZ, 5-(3-Methoxyazetidine-1-carbonyl)-N-(pyrazin-2-yl)-N-({5-[5-(trifluoromethyl)-1,2,4-oxadiazol-3-yl]thiophen-2-yl}methyl)pyridazin-3-amine], the EC50 in experiment [1] is no more than 1000 nM; in experiment [2], no less than 10 µM. Also, the IC50 in experiment [3] and in experiment [4] was greater than 10000 nM throughout.
As to `O=C(c1cnnc(N(Cc2ccc(-c3noc(C(F)(F)F)n3)s2)c2cnccn2)c1)N1CCCC1` [Example EA, N-(Pyrazin-2-yl)-5-(pyrrolidine-1-carbonyl)-N-({5-[5-(trifluoromethyl)-1,2,4-oxadiazol-3-yl]thiophen-2-yl}methyl)pyridazin-3-amine], the figures for the EC50 in experiment [1] and in experiment [2] were no more than 1000 nM and no less than 10 µM, respectively. In addition, the IC50 in experiment [3] and in experiment [4] was greater than 10000 nM throughout.
Turning to `O=C(c1cnnc(N(Cc2ccc(-c3noc(C(F)(F)F)n3)s2)c2cnccn2)c1)N1CCOCC1` [Example EB, 5-(Morpholine-4-carbonyl)-N-(pyrazin-2-yl)-N-({5-[5-(trifluoromethyl)-1,2,4-oxadiazol-3-yl]thiophen-2-yl}methyl)pyridazin-3-amine], the EC50 in experiment [1] is no more than 1000 nM; in experiment [2] it was no less than 10 µM. For the same compound, the IC50 in experiment [3] and in experiment [4] was greater than 10000 nM throughout.
With `CN1CCN(C(=O)c2cnnc(N(Cc3ccc(-c4noc(C(F)(F)F)n4)s3)c3cnccn3)c2)CC1` [Example EC, 5-(4-Methylpiperazine-1-carbonyl)-N-(pyrazin-2-yl)-N-({5-[5-(trifluoromethyl)-1,2,4-oxadiazol-3-yl]thiophen-2-yl}methyl)pyridazin-3-amine], the results for the EC50 in experiment [1] and in experiment [2] were no more than 1000 nM and no less than 10 µM, respectively. The IC50 in experiment [3] and in experiment [4] was greater than 10000 nM each time.
As for `O=C(c1cnnc(N(Cc2ccc(-c3noc(C(F)(F)F)n3)s2)c2cnccn2)c1)N1CCS(=O)(=O)CC1` [Example ED, 4-{6-[(Pyrazin-2-yl)({5-[5-(trifluoromethyl)-1,2,4-oxadiazol-3-yl]thiophen-2-yl}methyl)amino]pyridazine-4-carbonyl}-1λ^6-thiomorpholine-1,1-dione], the values for the EC50 in experiment [1] and in experiment [2] were no more than 1000 nM and no less than 10 µM, respectively. For the same compound, the IC50 in experiment [3] and in experiment [4] was greater than 10000 nM in each case.
Consider `N#Cc1cnnc(N(Cc2ccc(-c3noc(C(F)(F)F)n3)s2)c2cnccn2)c1` [Example EE, 6-[(Pyrazin-2-yl)({5-[5-(trifluoromethyl)-1,2,4-oxadiazol-3-yl]thiophen-2-yl}methyl)amino]pyridazine-4-carbonitrile], for which the EC50 in experiment [1] is no more than 1000 nM; in experiment [2] it was no less than 10 µM. Further, the IC50 in experiment [3] and in experiment [4] was greater than 10000 nM each time.
In the case of `FC(F)(F)c1cnnc(N(Cc2ccc(-c3noc(C(F)(F)F)n3)s2)c2cnccn2)c1` [Example EF, N-(Pyrazin-2-yl)-5-(trifluoromethyl)-N-({5-[5-(trifluoromethyl)-1,2,4-oxadiazol-3-yl]thiophen-2-yl}methyl)pyridazin-3-amine], the figures for the EC50 in experiment [1] and in experiment [2] were 1000 to 10000 nM and no less than 10 µM, respectively. For the same compound, the IC50 in experiment [3] and in experiment [4] was greater than 10000 nM each time.
As for `O=C(O)c1cnnc(N(Cc2ccc(-c3noc(C(F)(F)F)n3)s2)c2cc(C(F)(F)F)cnn2)c1` [Example ES, 6-[({5-[5-(Trifluoromethyl)-1,2,4-oxadiazol-3-yl]thiophen-2-yl}methyl)[5-(trifluoromethyl)pyridazin-3-yl]amino]pyridazine-4-carboxylicacid], the EC50 in experiment [1] was no less than 10000 nM; in experiment [2], no less than 10 µM. The IC50 in experiment [3] and in experiment [4] was greater than 10000 nM each time.
On to `CNC(=O)c1ccc(N(Cc2ccc(-c3noc(C(F)(F)F)n3)s2)c2cnccn2)nn1` [Example FC, N-Methyl-6-[(pyrazin-2-yl)({5-[5-(trifluoromethyl)-1,2,4-oxadiazol-3-yl]thiophen-2-yl}methyl)amino]pyridazine-3-carboxamide], for which the EC50 in experiment [1] is no more than 1000 nM; in experiment [2], no less than 10 µM. In addition, the IC50 in experiment [3] and in experiment [4] was greater than 10000 nM throughout.
In the case of `O=C(c1ccc(N(Cc2ccc(-c3noc(C(F)(F)F)n3)s2)c2cnccn2)nn1)N1CC[S+]([O-])CC1` [Example FD, 4-{6-[(Pyrazin-2-yl)({5-[5-(trifluoromethyl)-1,2,4-oxadiazol-3-yl]thiophen-2-yl}methyl)amino]pyridazine-3-carbonyl}-1lambda4-thiomorpholin-1-one], the results for the EC50 in experiment [1] and in experiment [2] were no more than 1000 nM and no less than 10 µM, respectively. Also, the IC50 in experiment [3] and in experiment [4] was greater than 10000 nM throughout.
